Measured values taken from patent US9212381B2, “Methods and compositions for labeling polypeptides” (President and Fellows of Harvard College, priority 2011, dated 2015).
“Also recorded” adds a separate entry of the source.

Experiments:
[1] = system: protein translation in rabbit reticulocyte lysates; assay: in vitro translation of 35S-Met-labeled GFP-SuFu in rabbit reticulocyte lysates, SDS-PAGE and autoradiography; type: biochemical; conditions: for inhibition of protein translation in vitro: varying concentrations, 1 hour at 30° C.
Procedure: (§1) A plasmid carrying a GFP fusion of the mouse Suppressor of Fused (SuFu) gene under the control of an SP6 RNA polymerase promoter was used to generate 35[S]-Met-labeled GFP-SuFu by in vitro translation in rabbit reticulocyte lysates (TNT SP6 Quick coupled transcription/translation kit, Promega), according to the manufacturer's instructions. Translation reactions were performed for 1 hour at 30° C., in the absence or presence of varying concentrations of puro and OP-puro. The reactions were stopped by addition of SDS-PAGE sample buffer with 50 mM DTT and boiling. Equal amounts of lysate were separated by SDS-PAGE and the amount of in vitro translated GFP-SuFu was determined by autoradiography.
as §1, with “^35S-Met-labeled” for “35[S]-Met-labeled”, “AE-puro (azido-puromycin, FIG. 5A).” for “OP-puro.”

[2] = system: human embryonic kidney 293T cells; assay: translation inhibition in cells: 35S-Met bulk protein translation, SDS-PAGE and autoradiography; type: cell-based
Procedure: To measure translation inhibition in cells, human embryonic kidney 293T cells were pre-incubated for 30 minutes with varying concentrations of puro or OP-puro, in complete media. The cells were then incubated for 3 hours in Met-free media supplemented with 35[S]-Met (from Perkin-Elmer, at 100 microCi/mL final concentration), in the continued presence of varying concentrations of puro or OP-puro. The cells were harvested, lyzed in TBS with 1% Triton X-100 and protease inhibitors (Complete tablets, Roche), and centrifuged for 15 minutes at 20,000 g in a refrigerated centrifuge. The clarified cells lysates were analyzed by SDS-PAGE, followed by autoradiography, to measure bulk protein translation.

[3] = system: NIH-3T3 cells; assay: OP-puro labeling of cultured cells, CuAAC with Alexa568-azide, fluorescence microscopy; type: cell-based
Procedure: NIH-3T3 cells were grown on glass coverslips in Dulbecco modified Eagle's medium (DMEM) supplemented with 10% bovine calf serum, penicillin and streptomycin. OP-puro was added to cells in complete culture medium. After incubation for the desired amount of time, the cells were washed with PBS and then fixed with cold methanol for 2 minutes at −20° C. The cells were washed with TBS (10 mM Tris pH 7.5, 150 mM NaCl), permeabilized with TBST (TBS with 0.2% Triton X-100), and then washed with TBS again. CuAAC detection of OP-puro incorporated into nascent protein was performed by reacting the fixed cells for 30 minutes at room temperature with 20 μM Alexa568-azide, as described (Salic et al., Proc. Natl. Acad. Sci. USA 105(7):2415-2420 (2008)). Cu(I) was generated in situ from CuSO4 and ascorbic acid. After staining, the coverslips were washed several times with TBST, counterstained with Hoechst, and mounted in standard mounting media. The stained cells were imaged by DIC and by epi-fluorescence microscopy on a Nikon TE2000U microscope equipped with an OrcaER camera (Hammamatsu), and 20× PlanApo 0.75 NA and 40× PlanApo 0.95 NA air objectives (Nikon). Images were collected using Metamorph image acquisition software (Applied Precision).
To determine if protein synthesis is required for OP-puro incorporation into nascent polypeptides, cells were incubated with OP-puro, in the presence or absence of 50 micrograms/mL cycloheximide (CHX), added to the cells 15 minutes before OP-puro. This concentration of CHX was determined to completely block protein translation in cells.
To determine the effect of inhibiting the proteasome on the stability of OP-puro-conjugated polypeptide chains, cells were pulse-labeled with 50 microM OP-puro for 15 minutes and were then incubated in complete media supplemented with 50 micrograms/mL CHX (to block further incorporation of OP-puro into nascent proteins), in the presence or absence of 5 microM of the proteasome inhibitor bortezomib. Cells were fixed at the indicated times and were stained in parallel with Alexa568-azide. Two negative controls were used: 1) untreated cells; and 2) cells pre-incubated with 50 micrograms/mL CHX for 15 minutes, followed by incubation with 50 microM OP-puro and 50 micrograms/mL CHX for another 15 minutes.

[4] = system: Human 293T cells; assay: affinity purification of nascent polypeptide-OP-puro conjugates (CuAAC with biotin azide, beads, autoradiography); type: cell-based; conditions: 25 microM OP-puro, 1 hour, FIG. 1E
Procedure: Human 293T cells were labeled for 1 hour in Met-free DMEM supplemented with 10% dialyzed fetal bovine serum and 35[S]-Met (100 microCi/mL final). The cells were then incubated in the same media, in the presence of 10 microM puro, 25 microM OP-puro or 25 microM OP-puro and 50 micrograms/mL CHX, for an additional 1 hour. The cells were harvested, washed with ice cold PBS and then lyzed on ice in 100 mM Tris pH 8.5 with 1% Triton-X10 and protease inhibitors. The lysates were clarified by centrifugation for 15 minutes at 20,000 g and 4° C., and were then subjected to CuAAC with biotin azide for 30 minutes at room temperature. The final concentrations in the CuAAC reaction were: 100 microM biotin azide, 1 mM CuSO4 and 50 mM ascorbic acid (added last to the lysates). Biotinylated proteins were diluted in binding buffer (20 mM Tris pH 8, 500 mM NaCl, 1% Triton-X100) and were bound to Neutravidin beads (Pierce). After extensive washes with binding buffer, bound proteins were eluted, separated by SDS-PAGE and detected by autoradiography.

[5] = system: nascent proteins in mouse tissues; assay: imaging of protein synthesis in whole animals with OP-puro, CuAAC with TMR-azide; type: in vivo
Procedure: One hundred microliters of a 20 mM solution of OP-puro in PBS were injected intraperitoneally into a 3-week old mouse, while a mouse injected with 100 microliters of PBS was used as negative control. Various organs were harvested after one hour and were fixed in formalin overnight. Organ fragments were embedded in paraffin, sectioned, and washed with xylene to remove the paraffin. After washing with ethanol and rehydration in TBS, the tissue sections were stained with 20 microM tetramethylrhodamine(TMR)-azide, as described (Salic et al., Proc. Natl. Acad. Sci. USA 105(7):2415-2420 (2008)). The tissue sections were counterstained with Hoechst, mounted in standard mounting media and were then imaged by fluorescence microscopy and DIC.

[6] = system: Cells; conditions: Beatty et al. 2002; cited from earlier work

## CN(C)c1ncnc2c1ncn2[C@@H]1O[C@H](CO)[C@@H](NC(=O)[C@@H](N)Cc2ccc(OCCN=[N+]=[N-])cc2)[C@H]1O [AE-puro, (S)-2-Amino-3-(4-(2-azidoethoxy)phenyl)-N-((2S,3S,4R,5R)-5-(6-(dimethylamino)-9H-purin-9-yl)-4-hydroxy-2(hydroxymethyl)tetrahydrofuran-3-yl)propanamide]
[1]; reticulocyte lysates, FIG. 5B
  potency of protein synthesis inhibition compared with unmodified puromycin: equal to that of unmodified puromycin
[1]
  inhibition of protein translation in vitro: inhibits protein synthesis in a dose-dependent manner

## C#CCOc1ccc(C[C@H](N)C(=O)N[C@H]2[C@@H](O)[C@H](n3cnc4c(N(C)C)ncnc43)O[C@@H]2CO)cc1 [OP-puro, (S)-2-Amino-N-((2S,3S,4R,5R)-5-(6-(dimethylamino)-9H-purin-9-yl)-4-hydroxy-2-(hydroxymethyl)tetrahydrofuran-3-yl)-3-(4-(prop-2-yn-1-yloxy)phenyl)propanamide]
[1]; reticulocyte lysates, FIG. 1C
  potency of protein synthesis inhibition, fold lower than that of unmodified puro: 2-3 fold
[1]
  inhibition of protein translation in vitro: inhibits protein synthesis in a dose-dependent manner
[2]; cell type not stated at the place
  concentration that blocked protein synthesis almost completely: 25 µM
[2]; cultured cells, FIG. 1D
  potency of protein synthesis inhibition, fold lower than that of unmodified puro: 2-3 fold
[3]; 1 hour incubation, Alexa568-azide, FIG. 2A
  fluorescent signal versus OP-puro concentration: specific fluorescent signal proportional to the concentration of OP-puro; also recorded: proportional to the concentration of added OP-puro
[3]; 3 hour image of FIG. 2B
  cytoplasmic OP-puro signal at later time points: significantly decreased
[3]; FIG. 2B
  incubation time after which a strong signal was seen: 15 min
[3]; stated in legend of FIG. 2B
  concentration sufficient to completely block protein synthesis: 50 µM
[4]
  formation of conjugates with nascent polypeptide chains: formed conjugates with 35[S]-Met-labeled nascent polypeptide chains
[5]; 100 microliters 20 mM intraperitoneally, organs harvested after 1 hour
  OP-puro incorporation into nascent proteins in tissues: specific patterns of OP-puro incorporation into nascent proteins
[5]; intraperitoneal, 1 hour, FIG. 3A/3B
  OP-puro staining pattern, small intestine: strongest in cells in the crypts and at the base of intestinal villi; also recorded: stains strongly the cells in the crypts (particularly Paneth cells) and the cells at the base of the villi
[5]; intraperitoneal, 1 hour, FIG. 3C
  OP-puro staining, muscle: striking striated pattern; also recorded: Sarcomeres are strongly stained
[5]; intraperitoneal, 1 hour, FIG. 4A
  OP-puro staining, liver: strongest in hepatocytes; also recorded: stains strongly all hepatocytes
[5]; intraperitoneal, 1 hour, FIG. 4C
  OP-puro staining, spleen: strongest OP-puro signal is found at the organ's periphery, under the capsule

## [N-]=[N+]=NCC[C@H](N)C(=O)O [Aha, azidohomoalanine]
[6]
  factor by which cells prefer Met over the analog: about 500

## C#CCCC(N)C(=O)O (stereo not drawn) [Hpg, homopropargylglycine]
[6]
  factor by which cells prefer Met over the analog: about 500

## CC(C)C[C@H](NC(=O)[C@H](Cc1ccccc1)NC(=O)c1cnccn1)B(O)O [bortezomib, reference compound]
[3]; 5 microM bortezomib in chase, FIG. 2C
  effect on stability of OP-puro conjugates: become stable; also recorded: completely stabilized

## C[C@@H]1C[C@@H]([C@H](O)CC2CC(=O)NC(=O)C2)C(=O)[C@@H](C)C1 [CHX, cycloheximide, reference compound]
[3]; CHX 50 micrograms/mL
  effect on OP-puro incorporation / conjugate formation: abolished; also recorded: do not form
[3]; added 15 minutes before OP-puro
  concentration determined to completely block protein translation in cells: 50 micrograms/mL
